Data reported in the supplement of paper PMC12076712.

Tests used:
Test in all cases: pIC50, kinobeads binding competition
Details in all cases: cell material: Jurkat lysate
EIF2AK4 = EIF2AK4 (UniProt Q9P2K8)
PRKG2 = biological target: T1, PRKG2 (UniProt Q13237)
T1 sequence (whole entry): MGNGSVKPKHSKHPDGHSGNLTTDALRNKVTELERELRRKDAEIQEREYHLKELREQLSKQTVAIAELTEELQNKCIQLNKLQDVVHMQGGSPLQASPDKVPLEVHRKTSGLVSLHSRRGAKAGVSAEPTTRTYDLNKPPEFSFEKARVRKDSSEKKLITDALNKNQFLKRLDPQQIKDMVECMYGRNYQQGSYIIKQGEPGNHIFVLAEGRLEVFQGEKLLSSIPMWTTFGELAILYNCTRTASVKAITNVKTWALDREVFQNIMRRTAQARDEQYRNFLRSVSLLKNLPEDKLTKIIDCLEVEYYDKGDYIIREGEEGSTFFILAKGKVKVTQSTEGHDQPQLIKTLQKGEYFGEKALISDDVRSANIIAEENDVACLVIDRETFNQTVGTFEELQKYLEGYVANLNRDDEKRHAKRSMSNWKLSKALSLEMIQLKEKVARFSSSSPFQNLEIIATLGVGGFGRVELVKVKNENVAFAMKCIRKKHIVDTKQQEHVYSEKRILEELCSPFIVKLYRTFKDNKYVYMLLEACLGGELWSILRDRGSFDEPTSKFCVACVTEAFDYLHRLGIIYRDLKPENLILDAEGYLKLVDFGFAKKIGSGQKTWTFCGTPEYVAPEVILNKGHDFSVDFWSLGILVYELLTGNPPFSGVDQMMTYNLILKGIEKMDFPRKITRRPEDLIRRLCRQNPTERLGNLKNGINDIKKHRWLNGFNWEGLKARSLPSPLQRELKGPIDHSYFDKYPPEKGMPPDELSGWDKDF

UniProt Q13557 = biological target: UniProt Q13557
Sequence of UniProt Q13557 (Q13557 whole entry): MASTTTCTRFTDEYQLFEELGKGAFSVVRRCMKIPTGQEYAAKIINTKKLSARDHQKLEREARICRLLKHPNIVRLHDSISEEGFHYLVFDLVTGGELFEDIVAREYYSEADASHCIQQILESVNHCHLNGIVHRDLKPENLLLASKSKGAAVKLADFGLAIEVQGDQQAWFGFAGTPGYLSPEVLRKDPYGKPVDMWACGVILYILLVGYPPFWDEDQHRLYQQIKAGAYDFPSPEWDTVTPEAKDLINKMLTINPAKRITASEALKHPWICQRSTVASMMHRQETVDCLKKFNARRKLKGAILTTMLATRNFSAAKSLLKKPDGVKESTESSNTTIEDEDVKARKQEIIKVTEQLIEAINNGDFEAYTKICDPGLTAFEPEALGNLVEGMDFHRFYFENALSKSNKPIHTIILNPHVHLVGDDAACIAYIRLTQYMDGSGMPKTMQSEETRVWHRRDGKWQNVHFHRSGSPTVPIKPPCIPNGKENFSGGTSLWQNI

MERTK = biological target: T2, MERTK (UniProt Q12866)
T2 sequence (whole entry): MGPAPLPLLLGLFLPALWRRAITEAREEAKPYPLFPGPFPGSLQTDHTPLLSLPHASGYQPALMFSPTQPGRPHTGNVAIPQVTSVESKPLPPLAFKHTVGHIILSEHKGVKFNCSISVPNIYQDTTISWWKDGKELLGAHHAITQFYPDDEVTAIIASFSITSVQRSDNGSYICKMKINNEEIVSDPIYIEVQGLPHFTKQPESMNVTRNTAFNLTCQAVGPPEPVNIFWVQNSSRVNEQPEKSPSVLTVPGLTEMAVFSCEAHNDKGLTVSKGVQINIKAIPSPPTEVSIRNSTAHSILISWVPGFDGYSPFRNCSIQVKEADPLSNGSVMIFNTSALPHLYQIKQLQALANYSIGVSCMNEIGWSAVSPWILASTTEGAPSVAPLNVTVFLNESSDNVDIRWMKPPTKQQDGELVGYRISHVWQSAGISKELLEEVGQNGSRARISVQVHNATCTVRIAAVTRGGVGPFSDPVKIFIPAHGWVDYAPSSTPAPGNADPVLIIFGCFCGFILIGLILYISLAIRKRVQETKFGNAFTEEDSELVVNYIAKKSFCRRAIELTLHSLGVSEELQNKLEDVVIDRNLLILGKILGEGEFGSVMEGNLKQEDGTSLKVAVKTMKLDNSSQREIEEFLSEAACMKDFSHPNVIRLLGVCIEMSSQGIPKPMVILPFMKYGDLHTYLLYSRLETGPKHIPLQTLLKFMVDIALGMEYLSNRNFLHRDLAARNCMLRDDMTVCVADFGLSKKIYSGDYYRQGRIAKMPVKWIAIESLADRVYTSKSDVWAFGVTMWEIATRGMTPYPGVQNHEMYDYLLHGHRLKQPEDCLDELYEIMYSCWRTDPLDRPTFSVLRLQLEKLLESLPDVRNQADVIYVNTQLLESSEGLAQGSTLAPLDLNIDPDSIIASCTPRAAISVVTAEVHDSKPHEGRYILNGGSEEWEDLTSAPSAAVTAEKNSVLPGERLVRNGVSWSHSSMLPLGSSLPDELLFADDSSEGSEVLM

PKMYT1 = biological target: T3, PKMYT1 (UniProt Q99640)
T3 sequence (whole entry): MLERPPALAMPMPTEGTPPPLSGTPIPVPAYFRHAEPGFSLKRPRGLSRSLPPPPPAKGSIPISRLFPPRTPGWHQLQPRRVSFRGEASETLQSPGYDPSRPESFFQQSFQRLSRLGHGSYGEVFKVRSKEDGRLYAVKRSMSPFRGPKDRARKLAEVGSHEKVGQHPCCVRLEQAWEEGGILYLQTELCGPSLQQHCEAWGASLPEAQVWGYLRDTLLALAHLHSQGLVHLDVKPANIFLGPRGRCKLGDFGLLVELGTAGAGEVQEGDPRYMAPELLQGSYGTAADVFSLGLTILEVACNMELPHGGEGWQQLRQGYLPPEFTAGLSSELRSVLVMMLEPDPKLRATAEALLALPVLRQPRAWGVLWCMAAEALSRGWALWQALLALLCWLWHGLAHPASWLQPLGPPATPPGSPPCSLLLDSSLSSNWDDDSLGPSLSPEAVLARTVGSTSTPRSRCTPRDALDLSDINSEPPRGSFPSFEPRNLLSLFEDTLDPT

BRAF = BRAF (UniProt P15056)
SRPK2 = SRPK2 (UniProt P78362)
Sequence of SRPK2 (P78362 whole entry, looked up): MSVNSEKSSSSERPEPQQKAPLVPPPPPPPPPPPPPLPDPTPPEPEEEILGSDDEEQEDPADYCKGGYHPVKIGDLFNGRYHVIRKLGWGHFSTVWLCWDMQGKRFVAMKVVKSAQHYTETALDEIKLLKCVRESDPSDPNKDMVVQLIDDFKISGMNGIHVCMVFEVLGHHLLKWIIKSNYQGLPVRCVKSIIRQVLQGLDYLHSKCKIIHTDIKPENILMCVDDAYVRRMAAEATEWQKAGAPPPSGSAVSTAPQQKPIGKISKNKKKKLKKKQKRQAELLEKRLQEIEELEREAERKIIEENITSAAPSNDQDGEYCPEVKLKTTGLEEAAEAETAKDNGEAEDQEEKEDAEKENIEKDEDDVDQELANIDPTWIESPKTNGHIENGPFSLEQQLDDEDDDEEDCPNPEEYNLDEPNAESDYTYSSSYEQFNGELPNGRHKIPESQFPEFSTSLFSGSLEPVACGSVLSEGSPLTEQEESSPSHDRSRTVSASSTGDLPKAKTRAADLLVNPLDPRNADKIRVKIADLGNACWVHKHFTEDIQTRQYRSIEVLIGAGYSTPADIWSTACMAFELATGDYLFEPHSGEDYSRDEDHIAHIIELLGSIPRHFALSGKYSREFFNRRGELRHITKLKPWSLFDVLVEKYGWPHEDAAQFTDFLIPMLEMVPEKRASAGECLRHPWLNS

PDIK1L = PDIK1L (UniProt Q8N165)
Sequence of PDIK1L (Q8N165 whole entry): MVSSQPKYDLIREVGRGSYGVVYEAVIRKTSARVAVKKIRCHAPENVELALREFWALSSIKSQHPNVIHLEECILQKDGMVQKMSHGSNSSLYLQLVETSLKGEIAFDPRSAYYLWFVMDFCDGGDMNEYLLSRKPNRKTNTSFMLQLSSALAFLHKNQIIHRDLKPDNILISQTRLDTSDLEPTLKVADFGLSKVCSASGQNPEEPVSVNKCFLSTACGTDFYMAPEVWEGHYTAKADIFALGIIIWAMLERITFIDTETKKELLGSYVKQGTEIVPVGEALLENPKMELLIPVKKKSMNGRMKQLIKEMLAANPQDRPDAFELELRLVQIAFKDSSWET

UniProt O75716 = biological target: UniProt O75716
Sequence of UniProt O75716 (O75716 whole entry): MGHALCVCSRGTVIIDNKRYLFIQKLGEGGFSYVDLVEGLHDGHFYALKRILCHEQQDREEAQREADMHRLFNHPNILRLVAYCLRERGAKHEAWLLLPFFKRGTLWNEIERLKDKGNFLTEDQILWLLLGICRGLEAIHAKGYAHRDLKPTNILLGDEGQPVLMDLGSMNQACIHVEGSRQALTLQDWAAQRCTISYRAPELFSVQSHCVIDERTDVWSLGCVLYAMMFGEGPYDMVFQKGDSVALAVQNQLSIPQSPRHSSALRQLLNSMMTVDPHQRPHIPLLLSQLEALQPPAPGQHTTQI

UniProt Q9NYL2 = biological target: UniProt Q9NYL2
Sequence of UniProt Q9NYL2 (Q9NYL2 whole entry, looked up): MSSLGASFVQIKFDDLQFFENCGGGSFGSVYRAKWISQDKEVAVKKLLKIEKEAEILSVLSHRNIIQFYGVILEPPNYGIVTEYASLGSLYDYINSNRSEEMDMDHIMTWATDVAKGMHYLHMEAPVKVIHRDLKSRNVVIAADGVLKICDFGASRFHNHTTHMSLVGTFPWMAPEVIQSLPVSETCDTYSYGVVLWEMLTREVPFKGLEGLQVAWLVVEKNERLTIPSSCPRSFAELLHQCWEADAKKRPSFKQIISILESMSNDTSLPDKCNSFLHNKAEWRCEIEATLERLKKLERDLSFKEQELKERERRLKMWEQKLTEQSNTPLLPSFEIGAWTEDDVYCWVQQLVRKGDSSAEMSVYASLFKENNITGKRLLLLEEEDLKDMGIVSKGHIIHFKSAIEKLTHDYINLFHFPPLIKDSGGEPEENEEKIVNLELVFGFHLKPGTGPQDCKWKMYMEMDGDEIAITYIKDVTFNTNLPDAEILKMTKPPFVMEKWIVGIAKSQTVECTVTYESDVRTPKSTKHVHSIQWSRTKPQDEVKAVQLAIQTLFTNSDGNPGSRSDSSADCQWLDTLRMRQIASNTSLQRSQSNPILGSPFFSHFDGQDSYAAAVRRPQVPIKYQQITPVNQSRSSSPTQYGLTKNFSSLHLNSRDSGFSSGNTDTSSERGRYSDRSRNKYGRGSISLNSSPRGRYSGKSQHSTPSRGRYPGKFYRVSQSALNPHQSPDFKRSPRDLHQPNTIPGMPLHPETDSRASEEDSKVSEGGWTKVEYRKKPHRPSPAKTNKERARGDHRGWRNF

SRC = SRC (UniProt P12931)
Sequence of SRC (P12931 whole entry, looked up): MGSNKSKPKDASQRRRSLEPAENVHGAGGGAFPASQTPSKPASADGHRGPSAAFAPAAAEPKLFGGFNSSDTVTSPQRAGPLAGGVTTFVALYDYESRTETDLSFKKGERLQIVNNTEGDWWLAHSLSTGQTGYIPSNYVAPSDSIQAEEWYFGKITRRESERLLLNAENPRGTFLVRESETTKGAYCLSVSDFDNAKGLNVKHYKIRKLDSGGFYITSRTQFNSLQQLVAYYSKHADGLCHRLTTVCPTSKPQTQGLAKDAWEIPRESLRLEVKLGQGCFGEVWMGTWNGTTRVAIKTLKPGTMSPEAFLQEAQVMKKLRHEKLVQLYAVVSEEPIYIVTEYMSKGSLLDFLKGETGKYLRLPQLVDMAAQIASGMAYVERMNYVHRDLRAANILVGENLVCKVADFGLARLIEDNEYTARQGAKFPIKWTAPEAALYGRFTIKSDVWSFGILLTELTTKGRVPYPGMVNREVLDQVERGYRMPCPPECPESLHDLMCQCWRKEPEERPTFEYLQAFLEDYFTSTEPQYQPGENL

Measured: pIC50

Sequence of EIF2AK4 (Q9P2K8 whole entry): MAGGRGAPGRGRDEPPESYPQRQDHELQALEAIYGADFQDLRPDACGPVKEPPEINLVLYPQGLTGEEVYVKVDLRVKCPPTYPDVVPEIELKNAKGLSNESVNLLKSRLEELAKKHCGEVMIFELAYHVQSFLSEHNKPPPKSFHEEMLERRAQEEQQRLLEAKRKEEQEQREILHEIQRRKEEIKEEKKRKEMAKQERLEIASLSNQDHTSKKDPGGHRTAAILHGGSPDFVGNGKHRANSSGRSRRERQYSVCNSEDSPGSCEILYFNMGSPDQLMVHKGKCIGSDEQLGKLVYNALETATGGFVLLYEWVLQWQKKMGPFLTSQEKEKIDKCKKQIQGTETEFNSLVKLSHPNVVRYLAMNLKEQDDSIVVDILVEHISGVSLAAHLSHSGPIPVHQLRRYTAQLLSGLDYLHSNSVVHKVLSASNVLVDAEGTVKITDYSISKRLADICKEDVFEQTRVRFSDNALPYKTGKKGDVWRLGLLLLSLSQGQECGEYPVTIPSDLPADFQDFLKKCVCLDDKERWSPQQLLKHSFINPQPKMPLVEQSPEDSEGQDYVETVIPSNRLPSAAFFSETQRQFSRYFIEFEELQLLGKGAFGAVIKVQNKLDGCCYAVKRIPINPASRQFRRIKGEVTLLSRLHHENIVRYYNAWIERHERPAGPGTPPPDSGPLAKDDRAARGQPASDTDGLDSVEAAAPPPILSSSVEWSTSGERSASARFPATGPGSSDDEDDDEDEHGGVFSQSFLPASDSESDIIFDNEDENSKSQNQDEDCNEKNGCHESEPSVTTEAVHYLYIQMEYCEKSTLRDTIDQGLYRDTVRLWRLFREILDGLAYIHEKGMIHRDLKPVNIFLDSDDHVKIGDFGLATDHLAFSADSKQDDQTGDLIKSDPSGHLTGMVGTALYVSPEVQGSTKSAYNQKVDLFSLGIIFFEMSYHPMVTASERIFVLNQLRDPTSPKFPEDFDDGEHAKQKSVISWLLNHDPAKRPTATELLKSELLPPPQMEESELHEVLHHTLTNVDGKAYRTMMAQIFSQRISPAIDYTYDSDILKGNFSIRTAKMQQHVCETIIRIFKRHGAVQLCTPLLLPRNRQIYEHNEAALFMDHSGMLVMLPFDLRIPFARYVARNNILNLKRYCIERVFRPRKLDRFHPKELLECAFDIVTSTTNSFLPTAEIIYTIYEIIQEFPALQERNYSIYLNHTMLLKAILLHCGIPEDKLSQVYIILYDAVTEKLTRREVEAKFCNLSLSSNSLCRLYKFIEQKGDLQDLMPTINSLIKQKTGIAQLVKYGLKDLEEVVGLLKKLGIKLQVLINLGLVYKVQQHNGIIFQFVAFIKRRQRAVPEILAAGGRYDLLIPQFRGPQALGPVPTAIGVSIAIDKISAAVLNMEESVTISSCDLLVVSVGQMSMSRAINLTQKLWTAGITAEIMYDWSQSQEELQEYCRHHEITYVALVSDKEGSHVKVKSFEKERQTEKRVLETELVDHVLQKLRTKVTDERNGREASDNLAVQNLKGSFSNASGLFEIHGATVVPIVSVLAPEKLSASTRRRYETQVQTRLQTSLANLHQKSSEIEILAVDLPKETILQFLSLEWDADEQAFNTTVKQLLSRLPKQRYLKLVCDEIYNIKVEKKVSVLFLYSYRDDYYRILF

CCc1cnn2c(NCc3ccc[n+]([O-])c3)cc(N3CCCC[C@H]3CCO)nc12 [dinaciclib]
< 4.52: all assays above
